In paper PMC6325200, “Effects of Microplate Type and Broth Additives on Microdilution MIC Susceptibility Assays” (Antimicrobial Agents and Chemotherapy, 2018):

Tests used:
P. aeruginosa ATCC 10145 = assay: microbe, parasite or virus in culture; conditions: Pseudomonas aeruginosa, n = 2
Method in brief: (§1)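 Compounds and standard antibiotics were serially diluted 2-fold across 96-well plates. Cultures were diluted 40-fold in fresh MH broth, with and without Tween, and incubated at 37°C for 2 to 3 h. Each plate carried a bacteria-only row and a medium-only control.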

E. faecalis ATCC 29212 = assay: microbe, parasite or virus in culture; conditions: Enterococcus faecalis, n = 2
Method in brief: as §1

[1] = system: S. aureus GISA NRS 2; ATCC 700698; assay: microbe, parasite or virus in culture; conditions: Staphylococcus aureus, n = 2
Method in brief: as §1

[2] = system: MSSA S. aureus ATCC 25923; assay: microbe, parasite or virus in culture; conditions: Staphylococcus aureus, n = 2
Method in brief: as §1

S. pneumoniae ATCC 33440 = assay: microbe, parasite or virus in culture; conditions: Streptococcus pneumoniae, n = 2
Method in brief: as §1

[3] = system: S. pneumoniae ATCC 700677 (MDR); assay: microbe, parasite or virus in culture; conditions: Streptococcus pneumoniae, ATCC700677
Method in brief: as §1

E. coli = conditions: literature value; cited from earlier work
E. coli ATCC 25922 = assay: microbe, parasite or virus in culture; conditions: Escherichia coli, n = 2
Method in brief: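 Broth microdilution with 2-fold serial compound dilutions in MH broth, using cultures diluted 40-fold and grown at 37°C for 2 to 3 h, with or without Tween. Variants included 2% beractant added to mid-log cultures, or 50% human serum in MHB.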

MRSA = conditions: literature value; cited from earlier work
Source text: TABLE 1 Literature MIC values for tested antibiotics | column: MIC (µg/ml) (reference[s]) / MRSA

O=C(O)c1cn(C2CC2)c2cc(N3CCNCC3)c(F)cc2c1=O [Ciprofloxacin, ciprofloxacin]
0.25 µg/mL: MIC (E. faecalis ATCC 29212; ATCC29212, Corning TC, MHB -T80)
64 µg/mL: MIC ([1]; Corning NBS, MHB +T80) | MIC ([1]; Corning NBS, MHB -T80) | MIC ([1]; Corning PS, MHB +T80) | MIC ([1]; Corning TC, MHB +T80)
0.03 to 0.06 µg/mL: MIC (E. coli ATCC 25922; ATCC25922, 24 h, Corning NBS, MH + 2% LHB, 2% LS) | MIC (E. coli ATCC 25922; ATCC25922, 24 h, Trek PS, MH + 2% LHB, no additive)
≤ 0.03 µg/mL: MIC (P. aeruginosa ATCC 10145; ATCC10145, Corning TC, MHB -T80) | MIC (E. coli ATCC 25922; ATCC25922, 24 h, Corning NBS, MH + 2% LHB, 50% HS) | MIC (E. coli ATCC 25922; ATCC25922, 24 h, Corning NBS, MH + 2% LHB, no additive) | MIC (E. coli ATCC 25922; ATCC25922, 24 h, Corning NBS, MH + T80, 2% LS) | MIC (E. coli ATCC 25922; ATCC25922, 24 h, Corning NBS, MH + T80, 50% HS) | MIC (E. coli ATCC 25922; ATCC25922, 24 h, Corning PS, MH + 2% LHB, 2% LS) | MIC (E. coli ATCC 25922; ATCC25922, 24 h, Corning PS, MH + 2% LHB, 50% HS) | MIC (E. coli ATCC 25922; ATCC25922, 24 h, Corning PS, MH + 2% LHB, no additive) | MIC (E. coli ATCC 25922; ATCC25922, 24 h, Corning PS, MH + T80, 2% LS) | MIC (E. coli ATCC 25922; ATCC25922, 24 h, Corning PS, MH + T80, 50% HS) | MIC (E. coli ATCC 25922; ATCC25922, 24 h, Corning TC, MH + 2% LHB, 2% LS) | MIC (E. coli ATCC 25922; ATCC25922, 24 h, Corning TC, MH + 2% LHB, 50% HS) | MIC (E. coli ATCC 25922; ATCC25922, 24 h, Corning TC, MH + 2% LHB, no additive) | MIC (E. coli ATCC 25922; ATCC25922, 24 h, Corning TC, MH + T80, 2% LS) | MIC (E. coli ATCC 25922; ATCC25922, 24 h, Corning TC, MH + T80, 50% HS) | MIC (E. coli ATCC 25922; ATCC25922, 24 h, Trek PS, MH + 2% LHB, 2% LS) | MIC (E. coli ATCC 25922; ATCC25922, 24 h, Trek PS, MH + 2% LHB, 50% HS) | MIC (E. coli ATCC 25922; ATCC25922, 24 h, Trek PS, MH + T80, 2% LS) | MIC (E. coli ATCC 25922; ATCC25922, 24 h, Trek PS, MH + T80, 50% HS) | MIC (E. coli ATCC 25922; ATCC25922, Corning NBS plate, MHB +0.002% T80, no further additive) | MIC (E. coli ATCC 25922; ATCC25922, Corning NBS plate, MHB −T80, no additive) | MIC (E. coli ATCC 25922; ATCC25922, Corning NBS, MH, 2% LS) | MIC (E. coli ATCC 25922; ATCC25922, Corning NBS, MH, 50% HS) | MIC (E. coli ATCC 25922; ATCC25922, Corning PS plate, MHB +0.002% T80, no further additive) | MIC (E. coli ATCC 25922; ATCC25922, Corning PS plate, MHB −T80, no additive) | MIC (E. coli ATCC 25922; ATCC25922, Corning PS, MH, 2% LS) | MIC (E. coli ATCC 25922; ATCC25922, Corning PS, MH, 50% HS) | MIC (E. coli ATCC 25922; ATCC25922, Corning TC plate, MHB +0.002% T80, no further additive) | MIC (E. coli ATCC 25922; ATCC25922, Corning TC plate, MHB −T80, no additive) | MIC (E. coli ATCC 25922; ATCC25922, Corning TC, MH, 2% LS) | MIC (E. coli ATCC 25922; ATCC25922, Corning TC, MH, 50% HS) | MIC (E. coli ATCC 25922; ATCC25922, Nunc PS plate, MHB −T80) | MIC (E. coli ATCC 25922; ATCC25922, Nunc U TC plate, MHB +0.002% T80) | MIC (E. coli ATCC 25922; ATCC25922, Nunc U TC plate, MHB −T80) | MIC (E. coli ATCC 25922; ATCC25922, Nunc flat TC plate, MHB +0.002% T80) | MIC (E. coli ATCC 25922; ATCC25922, Nunc flat TC plate, MHB −T80) | MIC (E. coli ATCC 25922; ATCC25922, Trek PS plate, MHB +0.002% T80, no further additive) | MIC (E. coli ATCC 25922; ATCC25922, Trek PS plate, MHB −T80, no additive) | MIC (E. coli ATCC 25922; ATCC25922, Trek PS, MH, 2% LS) | MIC (E. coli ATCC 25922; ATCC25922, Trek PS, MH, 50% HS)
32 to 64 µg/mL: MIC ([1]; Corning TC, MHB -T80)
0.5 to 1 µg/mL: MIC (E. faecalis ATCC 29212; ATCC29212, Corning TC, MHB +T80) | MIC ([2]; Corning NBS, MHB +T80) | MIC ([2]; Corning TC, MHB +T80) | MIC [3]
0.5 ([63]) µg/ml: MIC (literature) (MRSA)
2 µg/mL: MIC (E. faecalis ATCC 29212; ATCC29212, Corning NBS, MHB +T80) | MIC (E. faecalis ATCC 29212; ATCC29212, Corning NBS, MHB -T80)
0.5 µg/mL: MIC ([2]; Corning PS, MHB +T80)
0.25 to 0.5 µg/mL: MIC (P. aeruginosa ATCC 10145; ATCC10145, Corning PS, MHB +T80) | MIC (P. aeruginosa ATCC 10145; ATCC10145, Corning TC, MHB +T80) | MIC ([2]; Corning PS, MHB -T80) | MIC (S. pneumoniae ATCC 33440; ATCC33440, Corning PS, MHB -T80) | MIC (S. pneumoniae ATCC 33440; ATCC33440, Corning TC, MHB +T80) | MIC (S. pneumoniae ATCC 33440; ATCC33440, Corning TC, MHB -T80)
0.25 to 1 µg/mL: MIC (S. pneumoniae ATCC 33440; ATCC33440, Corning NBS, MHB +T80)
0.03–0.06 ([64], [65]) µg/ml: MIC (literature) (E. coli)
